According to US7618816B2, “Metal-binding therapeutic peptides” (Ontherix, Inc., priority 2005, dated 2009):
Where no end group is shown, it is not given here.

Legend:
TK-10 = experiment: Uptake of SA-HRP::MBD peptide complexes; format: cell-based, human
Method: (§1) HEK293 kidney cell line and 54 tumor cell lines obtained from the National Cancer Institute and passaged in RPMI1640 cell culture medium supplemented with 10% fetal bovine serum and 10 uM FeCl2. Uptake of streptavidin-horseradish peroxidase (SA-HRP) conjugate and of various SA-HRP::MBD peptide complexes was determined as described (Singh et al. J Biol Chem. 279 (1):477-87 [2004]) using biotinylated MBD9 ([…]) (SEQ ID NO: 10) and MBD21 ([…]) (SEQ ID NO: 4) peptides and SA-HRP. Nuclear and cytoplasmic localization of these proteins was also determined in each case. […] In order to establish the underlying molecular mechanism for this variability, we cross-linked MBD21 peptide to the following cell surface markers at 4 degrees Celsius as previously described (Singh et al. J Biol Chem. 279 (1):477-87 [2004]): transferrin receptor 1, caveolin 1, PCNA, integrins alpha v, 2, 5 and 6, integrins beta 1, 3 and 5. […] Based on the strength of these correlations, it was possible to derive crude predictive formulae for MBD-mediated uptake based on the rate of cross-linking to surface markers. Such predictive formulas could form the basis for a diagnostic procedure to select appropriate targets for MBD-based therapies.

CHA-59 = experiment: Uptake of SA-HRP::MBD peptide complexes; format: cell-based, human
Method: as §1

A549 = experiment: Uptake of SA-HRP::MBD peptide complexes; format: cell-based, human
Method: as §1

NCI-H460 = experiment: Uptake of SA-HRP::MBD peptide complexes; format: cell-based, human
Method: as §1

231 = experiment: Uptake of SA-HRP::MBD peptide complexes; format: cell-based, human
Method: as §1

NHI-H322M = experiment: Uptake of SA-HRP::MBD peptide complexes; format: cell-based, human
Method: as §1

HCC 2998 = experiment: Uptake of SA-HRP::MBD peptide complexes; format: cell-based, human
Method: as §1

HS 913T = experiment: Uptake of SA-HRP::MBD peptide complexes; format: cell-based, human
Method: as §1

MOLT4 = experiment: Uptake of SA-HRP::MBD peptide complexes; format: cell-based, human
Method: as §1

IGR-OV1 = experiment: Uptake of SA-HRP::MBD peptide complexes; format: cell-based, human
Method: as §1

786-O = experiment: Uptake of SA-HRP::MBD peptide complexes; format: cell-based, human
Method: as §1

NCI-H23 = experiment: Uptake of SA-HRP::MBD peptide complexes; format: cell-based, human
Method: as §1

PC-3 = experiment: Uptake of SA-HRP::MBD peptide complexes; format: cell-based, human
Method: as §1

HOP 62 = experiment: Uptake of SA-HRP::MBD peptide complexes; format: cell-based, human
Method: as §1

SHP-77 = experiment: Uptake of SA-HRP::MBD peptide complexes; format: cell-based, human
Method: as §1

A2780 = experiment: Uptake of SA-HRP::MBD peptide complexes; format: cell-based, human
Method: as §1

OVCAR-4 = experiment: Uptake of SA-HRP::MBD peptide complexes; format: cell-based, human
Method: as §1

KM12 = experiment: Uptake of SA-HRP::MBD peptide complexes; format: cell-based, human
Method: as §1

HOP 18 = experiment: Uptake of SA-HRP::MBD peptide complexes; format: cell-based, human
Method: as §1

HCT-116 = experiment: Uptake of SA-HRP::MBD peptide complexes; format: cell-based, human
Method: as §1

NCI-H226 = experiment: Uptake of SA-HRP::MBD peptide complexes; format: cell-based, human
Method: as §1

OVCAR-8 = experiment: Uptake of SA-HRP::MBD peptide complexes; format: cell-based, human
Method: as §1

CCRF-CEM = experiment: Uptake of SA-HRP::MBD peptide complexes; format: cell-based, human
Method: as §1

SN12C = experiment: Uptake of SA-HRP::MBD peptide complexes; format: cell-based, human
Method: as §1

MX-1 = experiment: Uptake of SA-HRP::MBD peptide complexes; format: cell-based, human
Method: as §1

54 tumor cell lines = experiment: Uptake of SA-HRP::MBD peptide complexes, median of the survey; format: cell-based; settings: median over tumor cell lines
Method: as §1

COLON 26 = experiment: Uptake of SA-HRP::MBD peptide complexes; format: cell-based
Method: as §1

CCRF-SB = experiment: Uptake of SA-HRP::MBD peptide complexes; format: cell-based
Method: as §1

K562 = experiment: Uptake of SA-HRP::MBD peptide complexes; format: cell-based
Method: as §1

SR = experiment: Uptake of SA-HRP::MBD peptide complexes; format: cell-based
Method: as §1

PAN 02 = experiment: Uptake of SA-HRP::MBD peptide complexes; format: cell-based
Method: as §1

435 = experiment: Uptake of SA-HRP::MBD peptide complexes; format: cell-based
Method: as §1

HEK 293 = experiment: Uptake of SA-HRP::MBD peptide complexes; format: cell-based
Method: as §1

## KKGFYKKKQCRPSKGRKRGFCWAVDKYG (cysteine pairing not given here; also: biotinylated (position not given here), complexed with SA-HRP) [MBD21]
TK-10; TK-10, cytoplasmic
  SA-HRP uptake, Cyt.: 5.0 ng
TK-10; TK-10, nuclear
  SA-HRP uptake, Nuc.: 2.2 ng
CHA-59; CHA-59, cytoplasmic
  SA-HRP uptake, Cyt.: 8.2 ng
CHA-59; CHA-59, nuclear
  SA-HRP uptake, Nuc.: 2.1 ng
A549; A549, cytoplasmic
  SA-HRP uptake, Cyt.: 4.4 ng
A549; A549, nuclear
  SA-HRP uptake, Nuc.: 1.3 ng
NCI-H460; NCI-H460, cytoplasmic
  SA-HRP uptake, Cyt.: 11.6 ng
NCI-H460; NCI-H460, nuclear
  SA-HRP uptake, Nuc.: 5.8 ng
231; 231, cytoplasmic
  SA-HRP uptake, Cyt.: 3.4 ng
231; 231, nuclear
  SA-HRP uptake, Nuc.: 1.1 ng
NHI-H322M; cytoplasmic
  SA-HRP uptake, Cyt.: 6.0 ng
NHI-H322M; nuclear
  SA-HRP uptake, Nuc.: 8.3 ng
HCC 2998; HCC 2998, cytoplasmic
  SA-HRP uptake, Cyt.: 2.1 ng
HCC 2998; HCC 2998, nuclear
  SA-HRP uptake, Nuc.: 2.4 ng
HS 913T; cytoplasmic
  SA-HRP uptake, Cyt.: 2.1 ng
HS 913T; nuclear
  SA-HRP uptake, Nuc.: 1.8 ng
MOLT4; MOLT4, cytoplasmic
  SA-HRP uptake, Cyt.: 7.3 ng
MOLT4; MOLT4, nuclear
  SA-HRP uptake, Nuc.: 0.0 ng
IGR-OV1; IGR-OV1, cytoplasmic
  SA-HRP uptake, Cyt.: 1.9 ng
IGR-OV1; IGR-OV1, nuclear
  SA-HRP uptake, Nuc.: 1.0 ng
786-O; cytoplasmic
  SA-HRP uptake, Cyt.: 1.8 ng
786-O; nuclear
  SA-HRP uptake, Nuc.: 4.8 ng
NCI-H23; NCI-H23, cytoplasmic
  SA-HRP uptake, Cyt.: 8.0 ng
NCI-H23; NCI-H23, nuclear
  SA-HRP uptake, Nuc.: 8.7 ng
PC-3; PC-3, cytoplasmic
  SA-HRP uptake, Cyt.: 44.2 ng
PC-3; PC-3, nuclear
  SA-HRP uptake, Nuc.: 13.2 ng
HOP 62; HOP 62, cytoplasmic
  SA-HRP uptake, Cyt.: 4.1 ng
HOP 62; HOP 62, nuclear
  SA-HRP uptake, Nuc.: 0.2 ng
SHP-77; SHP-77, cytoplasmic
  SA-HRP uptake, Cyt.: 6.6 ng
SHP-77; SHP-77, nuclear
  SA-HRP uptake, Nuc.: 2.7 ng
A2780; A2780, cytoplasmic
  SA-HRP uptake, Cyt.: 7.5 ng
A2780; A2780, nuclear
  SA-HRP uptake, Nuc.: 1.0 ng
OVCAR-4; OVCAR-4, cytoplasmic
  SA-HRP uptake, Cyt.: 6.1 ng
OVCAR-4; OVCAR-4, nuclear
  SA-HRP uptake, Nuc.: 1.3 ng
KM12; KM12, cytoplasmic
  SA-HRP uptake, Cyt.: 2.1 ng
KM12; KM12, nuclear
  SA-HRP uptake, Nuc.: 0.7 ng
HOP 18; HOP 18, cytoplasmic
  SA-HRP uptake, Cyt.: 10.3 ng
HOP 18; HOP 18, nuclear
  SA-HRP uptake, Nuc.: 3.1 ng
HCT-116; HCT-116, cytoplasmic
  SA-HRP uptake, Cyt.: 12.4 ng
HCT-116; HCT-116, nuclear
  SA-HRP uptake, Nuc.: 9.5 ng
NCI-H226; NCI-H226, cytoplasmic
  SA-HRP uptake, Cyt.: 0.7 ng
NCI-H226; NCI-H226, nuclear
  SA-HRP uptake, Nuc.: 0.9 ng
OVCAR-8; OVCAR-8, cytoplasmic
  SA-HRP uptake, Cyt.: 6.1 ng
OVCAR-8; OVCAR-8, nuclear
  SA-HRP uptake, Nuc.: 13.1 ng
CCRF-CEM; cytoplasmic
  SA-HRP uptake, Cyt.: 41.3 ng
CCRF-CEM; nuclear
  SA-HRP uptake, Nuc.: 2.0 ng
SN12C; cytoplasmic
  SA-HRP uptake, Cyt.: 6.7 ng
SN12C; nuclear
  SA-HRP uptake, Nuc.: 6.4 ng
MX-1; MX-1, cytoplasmic
  SA-HRP uptake, Cyt.: 8.5 ng
MX-1; MX-1, nuclear
  SA-HRP uptake, Nuc.: 3.8 ng
54 tumor cell lines; cytoplasmic
  SA-HRP uptake, Cyt. (ng), Median: 2.8 ng
54 tumor cell lines; nuclear
  SA-HRP uptake, Nuc. (ng), Median: 1.0 ng
COLON 26; COLON 26, cytoplasmic
  SA-HRP uptake, Cyt.: 8.9 ng
COLON 26; COLON 26, nuclear
  SA-HRP uptake, Nuc.: 2.2 ng
CCRF-SB; cytoplasmic
  SA-HRP uptake, Cyt.: 1.7 ng
CCRF-SB; nuclear
  SA-HRP uptake, Nuc.: 0.1 ng
K562; K562, cytoplasmic
  SA-HRP uptake, Cyt.: 2.8 ng
K562; K562, nuclear
  SA-HRP uptake, Nuc.: 1.1 ng
SR; cytoplasmic
  SA-HRP uptake, Cyt.: 20.9 ng
SR; nuclear
  SA-HRP uptake, Nuc.: 0.0 ng
PAN 02; PAN 02, cytoplasmic
  SA-HRP uptake, Cyt.: 9.3 ng
PAN 02; PAN 02, nuclear
  SA-HRP uptake, Nuc.: 2.2 ng
435; 435, cytoplasmic
  SA-HRP uptake, Cyt.: 6.1 ng
435; 435, nuclear
  SA-HRP uptake, Nuc.: 1.3 ng
HEK 293; HEK 293, cytoplasmic
  SA-HRP uptake, Cyt.: 13.6 ng
HEK 293; HEK 293, nuclear
  SA-HRP uptake, Nuc.: 4.5 ng
